Values quoted from earlier work as cited in patent publication US20240293600A1, “COMPOSITIONS, METHODS, AND DEVICES FOR SUSTAINED RELEASE OF AN AGENT” (Board of Supervisors of Louisiana State University and …, priority 2021, published 2024).

solubility in water: practically insoluble in water
Structure (SMILES): O=c1c(O)c(-c2ccc(O)c(O)c2)oc2cc(O)cc(O)c12 [Quercetin, 2-(3,4-dihydroxyphenyl)-3,5,7-trihydroxy-4H-1-benzopyran-4-one]
